Tests used:
[1] = Pharmacokinetics assay in rats after intragastrical administration; format: in vivo, SD rats; conditions: Sprague-Dawley, rat, plasma, po, 30 mg/kg, intragastric, male rats; for Vd/F: read-out: Apparent distribution volume Vz/F; for AUC: read-out: Area under curve AUC; for CL/F: read-out: Clearance CLz/F; for half-life: read-out: Half-life T1/2 (converted); for Cmax: read-out: Plasma concentration Cmax; for MRT: read-out: Residence time MRT
Procedure, shortened: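 Fasted male SD rats (3 per compound) received 30.0 mg/kg by gavage […] in 2.5% DMSO/97.5% of 10% solutol HS-15. Orbital blood was taken pre-dose and 0.5-24 h; plasma was acetonitrile-precipitated with camptothecin internal standard and quantified by LC/MS/MS.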

[2] = Brain permeability of rats (Kp-unbound); format: in vivo; conditions: both sexes, rat, not told, po; SD rats, 10 mg/kg intragastrically, 0.5 h after administration; read-out: Kp-unbound (blood-brain permeability index)
Experimental: The activity of the compounds of the present invention on the brain permeability of rats was determined by the following experimental method:
Four SD rats (half male and half female) were maintained in a 12 hours light/12 hours dark cycle, in a constant temperature of 24±3° C. and a humidity of 50-60%, and free access to food and water. The compounds were administered intragastrically to the rats after fasting overnight. The administration dosage was 10 mg/kg. The administration group was sacrificed after blood collection at 0.5 h to 2 h after administration (blood volume: 0.5 ml). The blood sample was stored in heparinized tubes, and centrifuged for 10 minutes at 3500 rpm to separate the plasma, which was marked as plasma 1 and stored at […]. The animal was decapitated after sacrificing, and the brain tissue was collected. The residual blood in the brain tissue was sucked with a filter paper, which was marked as brain tissue 1, and stored at 0° C. ten minutes later. Another three animals were treated by the same method as that of administration group to obtain blank plasma and brain tissue 2.
The drug compounds were diluted to 50 mM with DMSO to obtain a stock solution I. An appropriate amount of stock solution I was diluted with methanol to obtain a diluted stock solution II (200 μM). 10 μl of stock solution II was moved to a 1.5 ml Eppendorf tube, and then added with 990 μl of blank plasma, and mixed well to obtain 2 μM of plasma sample 2 (concentration of DMSO≤0.2%), which was used for the determination of plasma protein binding rate at this concentration. […]
The equilibrium dialysis tube of RED Device Inserts was inserted into a 96-well plate. […] The chromatographic peak area ratios of the total drug (plasma chamber) and the free drug (buffer chamber) to the internal standard were determined directly by the LC/MS/MS method established above respectively, and the free percent (fu plasma %) was calculated.
Brain tissue protein binding equilibrium dialysis process: the blank brain tissue 2 was formulated into a blank brain homogenate with PBS (pH 7.4) according to a dilution factor of 11, and added with compound to formulate a 2 μM brain homogenate. Other procedures were the same with that of plasma protein binding, the chromatographic peak area ratios of the total drug (brain homo chamber) and the free drug (buffer chamber) to the internal standard were determined by the established LC/MS/MS method respectively, and the free percent (fu brain hom %) was calculated.
1) The drug concentrations in plasma 1 and brain tissue 1 of rats 0.5 h after administration were determined by the established LC/MS/MS method respectively, which were the total concentration (Ctotal, p and Ctotal, b); […]

Q: For COCc1nnc(N2CC(c3cccc4cc(F)ccc34)C2)n1-c1ccc(OC)nc1 [Example 2, 5-(3-(3-(6-Fluoronaphthalen-1-yl)azetidin-1-yl)-5-(methoxymethyl)-4H-1,2,4-triazol-4-yl)-2-methoxypyridine], which Vd/F [1] is on record?
A: 5.29 ± 3.44 L/kg

Q: And the AUC [1]?
A: 8580 ± 3560 ng·h/mL

Q: And the CL/F [1]?
A: 63.8 ± 26.5 mL/min/kg

Q: And the half-life [1]?
A: 0.91 ± 0.25 h

Q: What about the Cmax [1] of the same compound?
A: 3930 ± 3030 ng/mL

Q: What about the MRT [1] of the same compound?
A: 2.46 ± 1.44 h

Q: What about the Kp at 0.5 h [2] of the same compound?
A: 0.199

Q: Which Vd/F [1] does the source give for COCc1nnc(N2CC(n3cc(C)c4cc(F)ccc43)C2)n1-c1ccc(OC)nc1 [Example 17, 5-Fluoro-1-(1-(5-(methoxymethyl)-4-(6-methoxypyridin-3-yl)-4H-1,2,4-triazol-3-yl)azetidin-3-yl)-3-methyl-1H-indole] here?
A: 13.7 ± 3.83 L/kg

Q: And the AUC [1]?
A: 11200 ± 4390 ng·h/mL

Q: What about the CL/F [1] of the same compound?
A: 48 ± 19 mL/min/kg

Q: What about the half-life [1] of the same compound?
A: 3.35 ± 0.399 h

Q: What about the Cmax [1] of the same compound?
A: 2020 ± 580 ng/mL

Q: What about the MRT [1] of the same compound?
A: 5.08 ± 0.552 h

Q: What about the Kp at 0.5 h [2] of the same compound?
A: 0.295
